Tests used:
isolated rat hearts [1] = assay: Isolated working rat heart, aerobic perfusion: cardiac function and efficiency; parameters: Cardiac Work (CO · PSP): unit not given beside the values; conditions: aerobically perfused, DCA 2 mM, diltiazem 0.8 μM, digoxin 3 nM, metoprolol 1 μM, dobutamine 1 μM
Protocol: (§1) Rat hearts were cannulated for isolated working heart perfusions as described in “An imbalance between glycolysis and glucose oxidation is a possible explanation for the detrimental effects of high levels of fatty acids during aerobic reperfusion of ischemic hearts.”, (J Pharmacol Exp Ther. 264:135 (1993); herein incorporated by reference. In brief, male Sprague-Dawley rats (0.3-0.35 kg) were anesthetized with pentobarbital sodium (60 mg/kg IP) and hearts were quickly excised, the aorta was cannulated and a retrograde perfusion at 37° C. was initiated at a hydrostatic pressure of 60 mm Hg. Hearts were trimmed of excess tissue, and the pulmonary artery and the opening to the left atrium were then cannulated. After 15 min of Langendorff perfusion, hearts were switched to the working mode by clamping the aortic inflow line from the Langendorff reservoir and opening the left atrial inflow line. The perfusate was delivered from an oxygenator into the left atrium at a constant preload pressure of 11 mm Hg. Perfusate was ejected from spontaneously beating hearts into a compliance chamber (containing 1 ml of air) and into the aortic outflow line. The afterload was set at a hydrostatic pressure of 80 mm Hg. All working hearts were perfused with Krebs'-Henseleit solution containing calcium 2.5 mmol/L, glucose 5.5 mmol/L, 3% bovine serum albumin (Fraction V, Boehringer Mannheim), and with 1.2 mmol/L palmitate. Palmitate was bound to the albumin as described previously (Saddik M., et al. J Biol. Chem. 267:3825-3831 (1992)). The perfusate was recirculated, and pH was adjusted to 7.4 by bubbling with a mixture containing 95% O2 and 5% CO2. For the aerobic model hearts, all tested compounds were introduced into the heart 5 minutes into the working mode following Langendorff Perfusion.
Spontaneously beating hearts were used in all perfusions. Heart rate and aortic pressure were measured with a Biopac Systems Inc. blood pressure transducer connected to the aortic outflow line. Cardiac output and aortic flow were measured with Transonic T206 ultrasonic flow probes in the preload and afterload lines, respectively. Coronary flow was calculated as the difference between cardiac output and aortic flow. The O2 contents of the perfusate entering and leaving the heart were measured using YSI™ micro oxygen electrodes placed in the preload and pulmonary arterial lines, respectively. Myocardial O2 consumption (MVO2) was calculated according to the Fick principle, using coronary flow rates and the arteriovenous difference in perfusate O2 concentration. Cardiac work was calculated as the product of systolic pressure and cardiac output. Cardiac efficiency was defined as a ratio of cardiac work to MVO2.

isolated rat hearts [2] = assay: Isolated working rat heart, aerobic perfusion: glycolysis and glucose oxidation; parameters: glycolytic rates (glycolysis) / glucose oxidation rates: unit not given here; conditions: normal hearts, aerobic; FIG. 2, 4, 6, 8; control 3.430±0.604; DCA 2 mM, digoxin 3 nM, diltiazem 0.8 μM, dobutamine 1 μM, metoprolol 1 μM
Protocol: as §1
Glycolysis and glucose oxidation were measured simultaneously by perfusing hearts with [5-^3H/U-^14C] glucose (Liu H., et al. Am J Physiol. 270:H72-H80 (1996); Taegtmeyer Het al. Am J Cardiol. 80:3A-10A (1997)). The total myocardial ^3H2O production and ^14CO2 production were determined at 10 minute intervals for the entirety of the aerobic period, 60 minutes for normal hearts and 30 minutes for the global ischemia and low flow demand ischemia models. In the global ischemia model, the total myocardial ^3H2O and ^14CO2 production were determined at 20 minute intervals for the 60 minute reperfusion period. In the low flow demand ischemia model, the total myocardial ^3H2O and ^14CO2 production were determined at 10 minute intervals for the 30 minute reperfusion period. Glucose oxidation rates were determined by quantitative measurement of ^14CO2 production as described previously (Barbour R. L., et al. Biochemistr. 1923:6503-6062 (1984)).

[3] = test system: isolated rat hearts subjected to low flow demand ischemia; assay: Isolated working rat heart, low flow demand ischemia: cardiac function and efficiency; conditions: for Aortic Outflow / Cardiac Output / Coronary Flow / HR × PSP / Heart Rate / Peak Systolic Pressure: DCA 2 mM, diltiazem 0.8 μM, metoprolol 1 μM
Protocol: Hearts were trimmed of excess tissue, and the pulmonary artery and the opening to the left atrium were then cannulated. After 15 min of Langendorff perfusion, hearts were switched to the working mode by clamping the aortic inflow line from the Langendorff reservoir and opening the left atrial inflow line. The perfusate was delivered from an oxygenator into the left atrium at a constant preload pressure of 11 mm Hg. […] The afterload was set at a hydrostatic pressure of 80 mm Hg. […] Palmitate was bound to the albumin as described previously ([…]., et al. J Biol. Chem. 267:3825-3831 (1992)). […] For the aerobic model hearts, all tested compounds were introduced into the heart 5 minutes into the working mode following Langendorff Perfusion. Spontaneously beating hearts were used in all perfusions. Heart rate and aortic pressure were measured with a Biopac Systems Inc. blood pressure transducer connected to the aortic outflow line. Cardiac output and aortic flow were measured with Transonic […] ultrasonic flow probes in the preload and afterload lines, respectively. Coronary flow was calculated as the difference between cardiac output and aortic flow. […] Cardiac work was calculated as the product of systolic pressure and cardiac output. Cardiac efficiency was defined as a ratio of cardiac work to MVO2. […] All tested compounds were introduced into the perfusate five minutes into initiation of aerobic perfusion.

[4] = test system: isolated rat hearts subjected to low flow demand ischemia; assay: Isolated working rat heart, low flow demand ischemia: glycolysis and glucose oxidation; conditions: FIG. 22, FIG. 28
[5] = low flow ischemia: aerobic period
[6] = low flow ischemia: ischemic period

With `COc1ccc([C@@H]2Sc3ccccc3N(CCN(C)C)C(=O)[C@@H]2OC(C)=O)cc1` [Diltiazem, diltiazem] the “Aortic Outflow” value (isolated rat hearts [1]) was 21 ± 1 mL/min, the “Cardiac Efficiency (CW · O2^−1)” value (isolated rat hearts [1]) was 1.63 ± 0.37 and the “Cardiac Output” value (isolated rat hearts [1]) was 41 ± 1 mL/min. For the same molecule, the “Cardiac Work (CO · PSP)” value (isolated rat hearts [1]) was 51 ± 1, the “Coronary Flow” value (isolated rat hearts [1]) was 20 ± 1 mL/min and the “HR × PSP” value (isolated rat hearts [1]) was 25 ± 1 beats · min^−1 · mmHg · 10^−2. For the same molecule, the “Heart Rate” value (isolated rat hearts [1]) was 202 ± 3 beats · min^−1, the “O2 Consumption” value (isolated rat hearts [1]) was 38 ± 9 μmolO2 · g dry wt^−1 · min^−1 and the “Peak Systolic Pressure” value (isolated rat hearts [1]) was 127 ± 4 mmHg. For the same molecule, the “Aortic Outflow” value (isolated rat hearts [1]; listed as diltiazem) was 21 ± 1 mL/min, the “Cardiac Work (CO · PSP)” value (isolated rat hearts [1]; listed as diltiazem) was 51±1 and the “HR × PSP” value (isolated rat hearts [1]; listed as diltiazem) was 25±1 beats · min^−1 · mmHg · 10^−2. The “Heart Rate” value (isolated rat hearts [1]; listed as diltiazem) was 202±3 beats · min^−1, the “glycolytic rates (glycolysis)” value (isolated rat hearts [2]) was 0.727±0.160 and the “peak systolic pressure, effect in words” value ([3]; low flow demand ischemia, Table 1) was “decreased”. The “Aortic Outflow” value [3, 5] was 22 ± 1 mL/min, the “Cardiac Output” value [3, 5] was 43 ± 1 mL/min and the “Coronary Flow” value [3, 5] was 21 ± 1 mL/min. The “HR × PSP” value [3, 5] was 28 ± 1 beats · min^−1 · mmHg · 10^−2, the “Heart Rate” value [3, 5] was 215 ± 6 beats · min^−1 and the “Peak Systolic Pressure” value [3, 5] was 131 ± 6 mmHg. For the same molecule, the “Aortic Outflow” value [3, 6] was 11 ± 4 mL/min, the “Cardiac Output” value [3, 6] was 24 ± 4 mL/min and the “Coronary Flow” value [3, 6] was 13 ± 1 mL/min. The “HR × PSP” value [3, 6] was 28 ± 1 beats · min^−1 · mmHg · 10^−2, the “Heart Rate” value [3, 6] was 215 ± 6 beats · min^−1 and the “Peak Systolic Pressure” value [3, 6] was 131 ± 6 mmHg. For the same molecule, the “cardiac function, in words” value ([3]; low-flow ischemic period, FIG. 23, FIG. 29) was “Neither diltiazem, DCA, nor DCA with diltiazem significantly affected” and the “glycolysis, in words” value [4] was “some attenuation”.
